{"source": "paper PMC3745465", "about": "(PLoS ONE, 2013)", "key": {"[1]": {"molecular_target": "T1, P-gp (Homo sapiens, UniProt P08183)", "T1 sequence (P08183 whole entry)": "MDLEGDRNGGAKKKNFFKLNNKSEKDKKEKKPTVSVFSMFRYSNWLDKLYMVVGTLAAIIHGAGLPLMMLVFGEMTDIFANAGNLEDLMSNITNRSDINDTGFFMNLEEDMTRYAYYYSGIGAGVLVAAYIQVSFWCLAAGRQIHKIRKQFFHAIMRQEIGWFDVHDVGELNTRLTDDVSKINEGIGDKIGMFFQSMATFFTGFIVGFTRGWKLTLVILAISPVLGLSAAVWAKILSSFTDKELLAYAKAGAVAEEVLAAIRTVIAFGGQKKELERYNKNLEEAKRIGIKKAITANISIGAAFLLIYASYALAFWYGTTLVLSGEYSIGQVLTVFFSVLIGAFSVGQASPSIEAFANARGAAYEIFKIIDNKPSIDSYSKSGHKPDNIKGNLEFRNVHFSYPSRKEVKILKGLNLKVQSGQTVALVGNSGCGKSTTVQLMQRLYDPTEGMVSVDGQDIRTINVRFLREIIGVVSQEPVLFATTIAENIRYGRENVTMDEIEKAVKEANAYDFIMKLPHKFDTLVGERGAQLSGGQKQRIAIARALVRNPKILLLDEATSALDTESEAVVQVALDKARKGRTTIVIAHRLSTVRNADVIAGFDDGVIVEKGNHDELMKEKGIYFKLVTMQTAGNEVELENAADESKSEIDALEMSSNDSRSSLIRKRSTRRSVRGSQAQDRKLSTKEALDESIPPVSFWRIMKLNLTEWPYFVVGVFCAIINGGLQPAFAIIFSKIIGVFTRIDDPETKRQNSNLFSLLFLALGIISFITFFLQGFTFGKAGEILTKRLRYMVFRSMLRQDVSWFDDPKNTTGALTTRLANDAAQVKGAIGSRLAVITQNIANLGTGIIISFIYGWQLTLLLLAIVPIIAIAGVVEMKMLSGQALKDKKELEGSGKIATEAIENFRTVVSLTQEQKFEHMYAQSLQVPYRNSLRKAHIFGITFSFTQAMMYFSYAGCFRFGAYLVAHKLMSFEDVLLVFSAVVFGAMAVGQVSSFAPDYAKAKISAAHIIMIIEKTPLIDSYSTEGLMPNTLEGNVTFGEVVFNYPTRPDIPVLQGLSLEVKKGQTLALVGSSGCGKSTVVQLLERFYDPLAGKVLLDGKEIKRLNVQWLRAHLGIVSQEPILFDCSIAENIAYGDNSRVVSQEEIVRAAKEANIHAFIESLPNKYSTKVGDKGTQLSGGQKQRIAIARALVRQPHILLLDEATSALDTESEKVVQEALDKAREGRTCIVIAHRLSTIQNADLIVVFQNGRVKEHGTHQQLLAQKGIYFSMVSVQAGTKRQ", "conditions": "MDCK-MDR1-NKI; fitted consensus value"}, "[2]": {"assay": "in vitro", "conditions": "dog"}, "[3]": {"tested_on": "apical uptake transporter (AT)", "conditions": "MDCK-MDR1-NKI; fitted"}, "[4]": {"set-up": "method as in earlier work", "conditions": "ref 18 19 20, cited from earlier work"}, "[5]": {"tested_on": "MDCK-MDR1-NKI confluent cell monolayers", "conditions": "nicardipine up to 100 µM; data not shown"}, "[6]": {"molecular_target": "T1, P-gp", "assay": "cell-based"}, "[7]": {"conditions": "mol drug per L lipid / mol drug per L aqueous buffer; 10 µM drug; 37°C"}, "[8]": {"tested_on": "basolateral digoxin uptake transporter", "conditions": "CPT-B2; 10 µM digoxin B>A, 1 hr; Trel = 0.3"}, "[9]": {"tested_on": "basolateral digoxin uptake transporter", "conditions": "MDCK-MDR1-NIH; 10 µM digoxin B>A, 1 hr; Trel = 0.6; listed as KCZ"}, "[10]": {"tested_on": "basolateral digoxin uptake transporter", "conditions": "Caco-2; 10 µM digoxin B>A, 1 hr; Trel = 0.2"}, "[11]": {"conditions": "MDCK-MDR1, with GF120918 2 µM, both chambers, Passive Permeability Coefficient at steady-state PAB, A>B, +GF120918"}, "[12]": {"conditions": "MDCK-MDR1, with GF120918 2 µM, both chambers, Passive Permeability Coefficient at steady-state PBA, B>A, +GF120918"}, "[13]": {"conditions": "MDCK-MDR1, with GF120918 2 µM, both chambers, passive permeability, direction not given"}}, "note": "Where two headings read alike, the source gives them in different places."}
{"smiles": "C=C[C@H]1C[N@@]2CC[C@H]1C[C@@H]2[C@@H](O)c1ccnc2ccc(OC)cc12", "note": "[Quinidine]", "values": [{"measurement": "Dissociation from P-gp into Apical Bilayer kr", "setting": "[1]", "result": "(4±2)×10^+3 s^−1"}, {"measurement": "Efflux from P-gp into Apical Chamber k2", "setting": "[1]", "result": "3 ± 0.4", "unit": "s⁻¹"}, {"measurement": "Papp", "setting": "[2]; [11]", "result": "67 ± 5", "unit": "×10⁻⁶ cm/s"}, {"measurement": "Papp", "setting": "[2]; [12]", "result": "67 ± 5", "unit": "×10⁻⁶ cm/s"}]}
{"smiles": "CC(C)CN(C[C@@H](O)[C@H](Cc1ccccc1)NC(=O)O[C@H]1CCOC1)S(=O)(=O)c1ccc(N)cc1", "note": "[Amprenavir]", "values": [{"measurement": "Other Transporters kA, 1st order clearance through apical uptake transporter", "setting": "[3]", "result": "350±30 0 s^−1"}]}
{"smiles": "COC(=O)C1=C(C)NC(C)=C(C(=O)OCCN(C)Cc2ccccc2)C1c1cccc([N+](=O)[O-])c1", "note": "(stereo not drawn) [nicardipine]", "values": [{"measurement": "concentration above which large aggregates are made", "setting": "[4]; enzyme inhibition studies", "result": "30–40 µm"}, {"measurement": "concentration at which colloidal aggregates form", "setting": "[4]", "result": "about 30 µM"}, {"measurement": "PC plateau (large inhibitor concentration plateau) of digoxin transport inhibition", "setting": "[5]", "result": "significantly above zero"}, {"measurement": "shape of inhibition curve of digoxin transport", "setting": "[5]", "result": "sigmoidal"}]}
{"smiles": "CN(C)C(=O)C(CCN1CCC(O)(c2ccc(Cl)cc2)CC1)(c1ccccc1)c1ccccc1", "note": "[Loperamide]", "values": [{"measurement": "Kd", "setting": "[6]", "result": 200, "unit": "µM"}, {"measurement": "Molar partition coefficient, Apical Outer Leaflet PC/SM/Chol (1∶1∶1) (mols), KAO", "setting": "[7]", "result": "300±50"}, {"measurement": "Molar partition coefficient, Basolateral Outer Leaflet PC/Chol (2∶1) (mols), KBO", "setting": "[7]", "result": "450±50"}, {"measurement": "Molar partition coefficient, Plasma Cytosolic Leaflet PE/PS/Chol (1∶1∶1) (mols), KPC", "setting": "[7]", "result": "1500±250"}, {"measurement": "Dissociation from P-gp into Apical Bilayer kr", "setting": "[1]", "result": "(2±1)×10^+4 s^−1"}, {"measurement": "Efflux from P-gp into Apical Chamber k2", "setting": "[1]", "result": "0.4 ± 0.08", "unit": "s⁻¹"}, {"measurement": "Papp", "setting": "[2]; MDCK-MDR1, Passive Permeability Coefficient at steady-state PAB, A>B, +GF120918", "result": "32 ± 7", "unit": "×10⁻⁶ cm/s"}, {"measurement": "Papp", "setting": "[2]; MDCK-MDR1, Passive Permeability Coefficient at steady-state PBA, B>A, +GF120918", "result": "32 ± 9", "unit": "×10⁻⁶ cm/s"}, {"measurement": "Papp", "setting": "[2]; MDCK-MDR1, passive permeability, direction not given", "result": "~32", "unit": "×10⁻⁶ cm/s"}]}
{"smiles": "C[C@H]1O[C@@H](O[C@H]2[C@@H](O)C[C@H](O[C@H]3[C@@H](O)C[C@H](O[C@H]4CC[C@@]5(C)[C@H](CC[C@@H]6[C@@H]5C[C@@H](O)[C@]5(C)[C@@H](C7=CC(=O)OC7)CC[C@]65O)C4)O[C@@H]3C)O[C@@H]2C)C[C@H](O)[C@@H]1O", "note": "[Digoxin]", "values": [{"measurement": "Other Transporters kA, 1st order clearance through apical uptake transporter", "setting": "[3]", "result": "40 ± 20", "unit": "s⁻¹"}, {"measurement": "aggregating compound or not", "setting": "[4]; enzyme inhibition studies", "result": "not to be aggregating compounds"}, {"measurement": "Dissociation from P-gp into Apical Bilayer kr", "setting": "[1]", "result": "(3±1)×10^+4 s^−1"}, {"measurement": "Efflux from P-gp into Apical Chamber k2", "setting": "[1]", "result": "3 ± 1", "unit": "s⁻¹"}, {"measurement": "Papp", "setting": "[2]; [11]", "result": "4 ± 1", "unit": "×10⁻⁶ cm/s"}, {"measurement": "Papp", "setting": "[2]; [12]", "result": "5 ± 1", "unit": "×10⁻⁶ cm/s"}, {"measurement": "Papp", "setting": "[2]; [13]", "result": "< 10", "unit": "×10⁻⁶ cm/s"}]}
{"smiles": "CC(=O)N1CCN(c2ccc(OCC3COC(Cn4ccnc4)(c4ccc(Cl)cc4Cl)O3)cc2)CC1", "note": "(stereo not drawn) [Ketoconazole]", "values": [{"measurement": "Other Transporters kA, 1st order clearance through apical uptake transporter", "setting": "[3]", "result": "730±70 0 s^−1"}, {"measurement": "aggregating compound or not", "setting": "[4]; enzyme inhibition studies", "result": "not to be aggregating compounds"}, {"measurement": "KQB, effective association constant of inhibitor to basolateral digoxin uptake transporter", "setting": "[8]", "result": "(4±2)×10^6 M^−1"}, {"measurement": "KQB, effective association constant of inhibitor to basolateral digoxin uptake transporter", "setting": "[9]", "result": "(4±2)×10^5 M^−1"}, {"measurement": "KQB, effective association constant of inhibitor to basolateral digoxin uptake transporter", "setting": "[10]", "result": "(2±1)×10^6 M^−1"}]}
{"smiles": "CC[C@]1(O)C[C@@H]2CN(CCc3c([nH]c4ccccc34)[C@@](C(=O)OC)(c3cc4c(cc3OC)N(C)[C@H]3[C@@](O)(C(=O)OC)[C@H](OC(C)=O)[C@]5(CC)C=CCN6CC[C@]43[C@@H]65)C2)C1", "note": "[Vinblastine]", "values": [{"measurement": "Other Transporters kA, 1st order clearance through apical uptake transporter", "setting": "[3]", "result": 0, "unit": "s⁻¹"}, {"measurement": "Molar partition coefficient, Apical Outer Leaflet PC/SM/Chol (1∶1∶1) (mols), KAO", "setting": "[7]", "result": "200±3"}, {"measurement": "Molar partition coefficient, Basolateral Outer Leaflet PC/Chol (2∶1) (mols), KBO", "setting": "[7]", "result": "200±20"}, {"measurement": "Molar partition coefficient, Plasma Cytosolic Leaflet PE/PS/Chol (1∶1∶1) (mols), KPC", "setting": "[7]", "result": "200±50"}, {"measurement": "Dissociation from P-gp into Apical Bilayer kr", "setting": "[1]", "result": "(5±2.5)×10^+4 s^−1"}, {"measurement": "Efflux from P-gp into Apical Chamber k2", "setting": "[1]", "result": "3 ± 0.5", "unit": "s⁻¹"}, {"measurement": "Papp", "setting": "[2]; [11]", "result": "5.5 ± 2", "unit": "×10⁻⁶ cm/s"}, {"measurement": "Papp", "setting": "[2]; [12]", "result": "9 ± 1", "unit": "×10⁻⁶ cm/s"}, {"measurement": "Papp", "setting": "[2]; [13]", "result": "< 10", "unit": "×10⁻⁶ cm/s"}]}
